Results reported in US7041303B2, “Use of moxonidine for postmyocardial infarction treatment” (Solvay Pharmaceuticals GmbH, priority 1999, dated 2006).

Experiments:
[1] = test system: Wistar rats with chronic myocardial infarction (MI); experiment: Plasma noradrenaline (HPLC) and ANF (RIA) levels in MI rats; assay type: in vivo, rat; settings: for Plasma NA (noradrenaline) level / Plasma ANF (atrial natriuretic factor): three weeks, mean ± SEM
Protocol: The following studies were performed on male Wistar rats (270 to 320 g, Harlan Zeist, Netherlands). The rats were kept in rooms with a 12 h light/dark cycle and had free access to standard rat diet and water. The animals underwent coronary artery ligation (MI rats) or sham operation without ligation (sham rats). After 24 hours the MI rats were randomized and implanted with osmotic minipumps (Alzet, Model 2001) in order to administer moxonidine in a dose of 3 or 6 mg/kg-day s.c. (subcutaneously) or only operated on without pump implant. The moxonidine treatment was continued up to the end of the experiment three weeks after the surgical procedure. The left anterior descending coronary artery was ligated under pentobarbital anesthesia (60 mg/kg, i.p.). Brief description: after intubation of the trachea, an incision was made in the skin over the 4th intercostal space. The overlaying muscles were separated and kept aside. […] The pericardium was opened. The heart was left in situ and a 6-0 silk suture was placed below the left coronary artery in the vicinity of the origin of the pulmonary artery. The suture was tightened. Sham rats were subjected to the same procedure but without actual ligation. The ribs were pulled together with 3-0 silk suture. The muscles were then returned to their original position and the skin was sutured. 19 days after the surgical procedure for coronary artery ligation the rats were again anesthetized with pentobarbital and a catheter (PE-10, heat-sealed with PE-50) was introduced through the femoral artery and placed in the abdominal aorta. The catheter was advanced subcutaneously as far as the animals' neck, where it was allowed to exit and was fixed and closed at the exit site. The rats were allowed a 2-day recovery period. On the day of sampling the catheter was lengthened with a heparin-treated, saline-filled tube and two 1-ml blood samples were collected after at least 60 minutes. Blood was collected in pre-cooled sample pots (syringes) prepared with 10 μl EDTA (0.1M). After centrifugation the plasma was collected in pre-cooled tubes containing either 1.2 mg glutathione or 10 μl aprotinin (100 KIU; KIU=kilo international units) in order to determine either catecholamines or atrial natriuretic factor (ANF). The tubes were stored at −80° C. The plasma concentrations of noradrenaline, adrenaline and dopamine were determined by HPLC, whereas the concentrations of ANF were analyzed using an RIA test. The data obtained were expressed as group means ± SEM (standard error of the mean) unless otherwise stated. Only data of infarcted hearts with an infarct area covering the major portion of the free heart wall of the left ventricle were included in the evaluation since smaller infarct areas are usually fully compensated hemodynamically. The data were analyzed by one-way analysis of variance (ANOVA) followed by post-hoc Bonferroni analysis. Differences in the structural parameters in moxonidine treated and untreated infarcted hearts were determined by Student t-test independently for the two groups.

[2] = test system: Wistar rats with chronic myocardial infarction (MI); experiment: Wistar rats with chronic myocardial infarction (coronary artery ligation): body weight, heart weight, heart rate, MAP, mortality; assay type: in vivo; settings: for Heart rate: conscious infarct rats
Protocol: The following studies were performed on male Wistar rats (270 to 320 g, Harlan Zeist, Netherlands). The rats were kept in rooms with a 12 h light/dark cycle and had free access to standard rat diet and water. The animals underwent coronary artery ligation (MI rats) or sham operation without ligation (sham rats). After 24 hours the MI rats were randomized and implanted with osmotic minipumps (Alzet, Model 2001) in order to administer moxonidine in a dose of 3 or 6 mg/kg-day s.c. (subcutaneously) or only operated on without pump implant. The moxonidine treatment was continued up to the end of the experiment three weeks after the surgical procedure.
The left anterior descending coronary artery was ligated under pentobarbital anesthesia (60 mg/kg, i.p.). Brief description: after intubation of the trachea, an incision was made in the skin over the 4th intercostal space. The overlaying muscles were separated and kept aside. The animals were then placed on positive pressure ventilation (rate 65 to 70/min, stroke volume 3 ml) and the thoracic cavity was opened by cutting the intercostal muscles. The pericardium was opened. The heart was left in situ and a 6-0 silk suture was placed below the left coronary artery in the vicinity of the origin of the pulmonary artery. The suture was tightened. Sham rats were subjected to the same procedure but without actual ligation. The ribs were pulled together with 3-0 silk suture. The muscles were then returned to their original position and the skin was sutured.
The data obtained were expressed as group means ± SEM (standard error of the mean) unless otherwise stated. Only data of infarcted hearts with an infarct area covering the major portion of the free heart wall of the left ventricle were included in the evaluation since smaller infarct areas are usually fully compensated hemodynamically. The data were analyzed by one-way analysis of variance (ANOVA) followed by post-hoc Bonferroni analysis. Differences in the structural parameters in moxonidine treated and untreated infarcted hearts were determined by Student t-test independently for the two groups.
Four groups of rats were studied: 2 moxonidine-treated infarct rats (dosage 3 and 6 mg/kg·day), untreated infarct rats and sham-operated control rats (SHAM rats). Coronary artery ligation produced a main infarction in the free wall of the left ventricle. Total mortality of the experimental animals was 29% and was the same in both infarct groups. Data of five rats of the 6 mg/kg·day group had to be excluded since their infarct area was too small. The results of the tests are summarized in Table 1 for experiments with a dosage of 6 mg/kg·day and for a dosage of 3 mg/kg·day, and are explained in the following. The results shown in Table 1 comprise the data of groups of 7 to 14 rats with the exception of the collagen measurements, for which the data refer to groups of 6 to 7 rats.

[3] = test system: Wistar rats with chronic myocardial infarction (MI); experiment: Measurement of cardiac interstitial collagen (Sirius red) in MI rats; assay type: in vivo, rat; settings: interventricular septum, infarct rats, three weeks, mean ± SEM
Protocol: The following studies were performed on male Wistar rats (270 to 320 g, Harlan Zeist, Netherlands). The rats were kept in rooms with a 12 h light/dark cycle and had free access to standard rat diet and water. The animals underwent coronary artery ligation (MI rats) or sham operation without ligation (sham rats). After 24 hours the MI rats were randomized and implanted with osmotic minipumps (Alzet, Model 2001) in order to administer moxonidine in a dose of 3 or 6 mg/kg-day s.c. (subcutaneously) or only operated on without pump implant. The moxonidine treatment was continued up to the end of the experiment three weeks after the surgical procedure. The left anterior descending coronary artery was ligated under pentobarbital anesthesia (60 mg/kg, i.p.). Brief description: after intubation of the trachea, an incision was made in the skin over the 4th intercostal space. […] The quantity of interstitial collagen was determined on 6 to 7 hearts randomly selected from each experimental group. […] The data obtained were expressed as group means ± SEM (standard error of the mean) unless otherwise stated. […] The data were analyzed by one-way analysis of variance (ANOVA) followed by post-hoc Bonferroni analysis. Differences in the structural parameters in moxonidine treated and untreated infarcted hearts were determined by Student t-test independently for the two groups.

[4] = infarct rats, moxonidine 6 mg/kg daily s.c.
[5] = infarct rats, moxonidine 3 mg/kg daily s.c., three weeks, mean ± SEM
[6] = infarct rats, moxonidine 6 mg/kg daily s.c., three weeks, mean ± SEM

With `COc1nc(C)nc(Cl)c1NC1=NCCN1` [moxonidine, 4-chloro-5-[(4,5-dihydro-1H-imidazol-2-yl)-amino]-6-methoxy-2-methyl-pyrimidine] the “Plasma noradrenaline levels (in words)” value ([1]; infarct rats, 3 mg/kg·day group) was “clearly reduced”, the “Plasma noradrenaline levels (in words)” value ([1]; infarct rats, 6 mg/kg·day group, versus sham rats) was “almost half the values of the sham rats” and the “Plasma NA (noradrenaline) level” value ([1]; infarct rats, moxonidine 3 mg/kg daily s.c.) was 345 ± 108 pg/mL. For the same compound, the “Plasma ANF (atrial natriuretic factor)” value ([1]; infarct rats, moxonidine 3 mg/kg daily s.c., n-3) was “(54 ± 2, n-3) pg/ml”, the “Plasma ANF (atrial natriuretic factor)” value [1, 4] was 61 ± 8 pg/mL and the “Plasma NA (noradrenaline) level” value [1, 4] was 96 ± 20 pg/mL. The “Plasma ANF levels (in words)” value ([1]; moxonidine-treated infarct rats versus untreated infarct rats) was “unchanged compared to those of untreated infarct rats”, the “Plasma noradrenaline levels (in words)” value ([1]; moxonidine-treated infarct rats, dose not stated, versus sham rats) was “about half the value found for the sham rats” and the Heart rate ([2]; moxonidine 3 mg/kg daily s.c., three weeks, mean ± SEM) was 334 ± 12 beats/min. The Heart rate ([2]; moxonidine 6 mg/kg daily s.c., three weeks, mean ± SEM) was 321 ± 6 beats/min, the Heart weight [2, 5] was 1408 ± 104 mg and the Heart/Body weight ratio [2, 5] was 4.7 ± 0.4. For the same compound, the “MAP (mean arterial pressure)” value [2, 5] was 87 ± 3 mmHg, the Heart weight [2, 6] was 1076 ± 24 mg and the “MAP (mean arterial pressure)” value [2, 6] was 100 ± 5 mmHg. For the same compound, the “Heart rate measured in conscious animals (in words)” value ([2]; moxonidine-treated infarct rats versus sham rats) was “slowing of cardiac activity (bradycardia) compared to the sham rats”, the “Body weight (in words)” value ([2]; moxonidine-treated infarct rats versus untreated infarct rats and sham rats) was “slightly lower body weight than the untreated infarct rats” and the “Cardiac weight (in words)” value ([2]; moxonidine-treated infarct rats versus untreated infarct rats, dosage depending 3 to 6 mg/kg·day) was “significantly lower than the cardiac weight of untreated infarct rats”. The “Total mortality of the experimental animals” value ([2]; the same in both infarct groups (treated and untreated)) was 29%, the “Interstitial Collagen” value ([3]; moxonidine 3 mg/kg daily s.c.) was 2.4 ± 0.2 % and the “Interstitial Collagen” value ([3]; moxonidine 6 mg/kg daily s.c.) was 1.4 ± 0.1%.
